Laboratory results from PMC8800111 (The Journal of Biological Chemistry, 2021).

Experiments:
Type in all cases: cell-based
[1] = biological target: proteins of U3A human fibrosarcoma cells (4462 proteins detected) (Homo sapiens, UniProt P08582); settings: protein MFI2; U3A cells
[2] = biological target: proteins of U3A human fibrosarcoma cells (4462 proteins detected) (Homo sapiens, UniProt P17987); settings: protein TCP1; U3A cells
[3] = biological target: proteins of U3A human fibrosarcoma cells (4462 proteins detected) (Homo sapiens, UniProt Q12933); settings: protein TRAF2; U3A cells
[4] = biological target: proteins of U3A human fibrosarcoma cells (4462 proteins detected) (Homo sapiens, UniProt Q49AR2); settings: protein C5orf22, U3A cells
[5] = biological target: proteins of U3A human fibrosarcoma cells (4462 proteins detected) (Homo sapiens, UniProt P32320); settings: protein CDA, U3A cells
[6] = biological target: proteins of U3A human fibrosarcoma cells (4462 proteins detected) (Homo sapiens, UniProt Q16763); settings: protein UBE2S; U3A, 10 μM, 2 h
[7] = biological target: proteins of U3A human fibrosarcoma cells (4462 proteins detected) (Homo sapiens, UniProt Q92692); settings: protein PVRL2; U3A cells
[8] = biological target: proteins of U3A human fibrosarcoma cells (4462 proteins detected) (Homo sapiens, UniProt Q9H7X7); settings: protein IFT22; U3A, 10 μM, 2 h
[9] = biological target: proteins of U3A human fibrosarcoma cells (4462 proteins detected) (Homo sapiens, UniProt Q9BW91); settings: protein NUDT9, U3A cells
[10] = biological target: proteins of U3A human fibrosarcoma cells (4462 proteins detected) (Homo sapiens, UniProt Q9NVT9); settings: protein ARMC1; U3A cells
[11] = biological target: proteins of U3A human fibrosarcoma cells (4462 proteins detected) (Homo sapiens, UniProt Q8WXD5); settings: protein GEMIN6, U3A cells
[12] = biological target: proteins of U3A human fibrosarcoma cells (4462 proteins detected) (Homo sapiens, UniProt Q9BUL5); settings: protein PHF23, U3A cells
[13] = biological target: proteins of U3A human fibrosarcoma cells (4462 proteins detected) (Homo sapiens, UniProt Q9UKX7); settings: protein NUP50; soluble abundance after heat, U3A cells
[14] = biological target: proteins of U3A human fibrosarcoma cells (4462 proteins detected) (Homo sapiens, UniProt Q9H4E7); settings: protein DEF6; U3A cells
[15] = biological target: proteins of U3A human fibrosarcoma cells (4462 proteins detected) (Homo sapiens, UniProt P17706); settings: protein PTPN2, U3A cells
[16] = biological target: proteins of U3A human fibrosarcoma cells (4462 proteins detected) (Homo sapiens, UniProt Q9UIC8); settings: protein LCMT1, U3A cells
[17] = biological target: proteins of U3A human fibrosarcoma cells (4462 proteins detected) (Homo sapiens, UniProt P26447); settings: protein S100A4; U3A, 10 μM, 2 h
[18] = biological target: proteins of U3A human fibrosarcoma cells (4462 proteins detected) (Homo sapiens, UniProt Q96PK6); settings: protein RBM14; soluble abundance after heat, U3A cells
[19] = biological target: proteins of U3A human fibrosarcoma cells (4462 proteins detected) (Homo sapiens, UniProt Q8IZL8); settings: protein PELP1; U3A cells
[20] = biological target: proteins of U3A human fibrosarcoma cells (4462 proteins detected) (Homo sapiens, UniProt P62937); settings: protein PPIA
[21] = biological target: proteins of U3A human fibrosarcoma cells (4462 proteins detected) (Homo sapiens, UniProt Q9C0E2); settings: protein XPO4; soluble abundance after heat, U3A cells
[22] = biological target: proteins of U3A human fibrosarcoma cells (4462 proteins detected) (Homo sapiens, UniProt Q8N163); settings: protein CCAR2; U3A cells
[23] = biological target: proteins of U3A human fibrosarcoma cells (4462 proteins detected) (Homo sapiens, UniProt Q8TED0); settings: protein UTP15; U3A cells
[24] = biological target: proteins of U3A human fibrosarcoma cells (4462 proteins detected) (Homo sapiens, UniProt Q9HD33); settings: protein MRPL47; U3A cells
[25] = biological target: proteins of U3A human fibrosarcoma cells (4462 proteins detected) (Homo sapiens, UniProt P07910); settings: protein HNRNPC; U3A, 10 μM, 2 h
[26] = biological target: proteins of U3A human fibrosarcoma cells (4462 proteins detected) (Homo sapiens, UniProt P63146); settings: protein UBE2B, U3A cells
[27] = biological target: proteins of U3A human fibrosarcoma cells (4462 proteins detected) (Homo sapiens, UniProt P11717); settings: protein IGF2R; soluble abundance after heat, U3A cells
[28] = biological target: proteins of U3A human fibrosarcoma cells (4462 proteins detected) (Homo sapiens, UniProt P40123); settings: protein CAP2; U3A cells
[29] = biological target: proteins of U3A human fibrosarcoma cells (4462 proteins detected) (Homo sapiens, UniProt Q9Y3B4); settings: protein SF3B6; soluble abundance after heat, U3A cells
[30] = biological target: proteins of U3A human fibrosarcoma cells (4462 proteins detected) (Homo sapiens, UniProt Q9NYV4); settings: protein CDK12; U3A cells

Chain of proteins of U3A human fibrosarcoma cells (4462 proteins detected) (Homo sapiens, UniProt P62937) (P62937 whole entry): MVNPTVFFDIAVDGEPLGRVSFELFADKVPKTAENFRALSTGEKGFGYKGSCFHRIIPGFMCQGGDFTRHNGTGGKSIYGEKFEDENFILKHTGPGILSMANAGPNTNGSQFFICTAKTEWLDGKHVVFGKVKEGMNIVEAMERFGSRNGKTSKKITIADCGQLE
Chain of proteins of U3A human fibrosarcoma cells (4462 proteins detected) (Homo sapiens, UniProt P40123) (P40123 whole entry): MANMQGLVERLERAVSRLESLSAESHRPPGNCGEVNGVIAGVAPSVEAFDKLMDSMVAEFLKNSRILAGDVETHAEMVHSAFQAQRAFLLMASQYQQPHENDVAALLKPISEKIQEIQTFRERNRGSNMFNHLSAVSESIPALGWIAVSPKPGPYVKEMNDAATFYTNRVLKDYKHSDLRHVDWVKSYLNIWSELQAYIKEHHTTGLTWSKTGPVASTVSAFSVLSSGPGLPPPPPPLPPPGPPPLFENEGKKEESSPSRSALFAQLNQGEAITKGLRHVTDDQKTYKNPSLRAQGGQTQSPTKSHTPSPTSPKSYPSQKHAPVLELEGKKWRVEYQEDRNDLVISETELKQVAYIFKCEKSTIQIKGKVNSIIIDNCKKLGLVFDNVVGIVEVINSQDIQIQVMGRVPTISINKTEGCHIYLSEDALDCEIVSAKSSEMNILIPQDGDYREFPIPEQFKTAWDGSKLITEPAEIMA
Chain of proteins of U3A human fibrosarcoma cells (4462 proteins detected) (Homo sapiens, UniProt Q16763) (Q16763 whole entry): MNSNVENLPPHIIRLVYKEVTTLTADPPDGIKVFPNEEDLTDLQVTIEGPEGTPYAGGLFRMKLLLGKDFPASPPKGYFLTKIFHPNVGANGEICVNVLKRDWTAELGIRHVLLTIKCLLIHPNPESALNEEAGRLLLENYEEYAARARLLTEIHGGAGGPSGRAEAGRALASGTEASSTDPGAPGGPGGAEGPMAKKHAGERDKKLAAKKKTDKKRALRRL
Chain of proteins of U3A human fibrosarcoma cells (4462 proteins detected) (Homo sapiens, UniProt P17987) (P17987 whole entry): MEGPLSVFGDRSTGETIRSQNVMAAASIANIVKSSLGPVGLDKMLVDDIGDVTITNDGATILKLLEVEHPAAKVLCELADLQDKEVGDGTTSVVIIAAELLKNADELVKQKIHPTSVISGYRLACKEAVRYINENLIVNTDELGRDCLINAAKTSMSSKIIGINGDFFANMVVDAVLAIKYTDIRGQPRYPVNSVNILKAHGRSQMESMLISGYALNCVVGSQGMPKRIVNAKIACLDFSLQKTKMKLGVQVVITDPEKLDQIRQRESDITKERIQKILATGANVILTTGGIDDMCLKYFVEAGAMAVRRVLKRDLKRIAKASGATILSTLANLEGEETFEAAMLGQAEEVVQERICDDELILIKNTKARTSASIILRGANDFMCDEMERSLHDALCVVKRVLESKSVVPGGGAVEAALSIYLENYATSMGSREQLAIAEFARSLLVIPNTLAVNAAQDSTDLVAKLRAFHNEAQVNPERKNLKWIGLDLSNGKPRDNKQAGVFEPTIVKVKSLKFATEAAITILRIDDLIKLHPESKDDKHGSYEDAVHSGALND
Chain of proteins of U3A human fibrosarcoma cells (4462 proteins detected) (Homo sapiens, UniProt Q49AR2) (Q49AR2 whole entry): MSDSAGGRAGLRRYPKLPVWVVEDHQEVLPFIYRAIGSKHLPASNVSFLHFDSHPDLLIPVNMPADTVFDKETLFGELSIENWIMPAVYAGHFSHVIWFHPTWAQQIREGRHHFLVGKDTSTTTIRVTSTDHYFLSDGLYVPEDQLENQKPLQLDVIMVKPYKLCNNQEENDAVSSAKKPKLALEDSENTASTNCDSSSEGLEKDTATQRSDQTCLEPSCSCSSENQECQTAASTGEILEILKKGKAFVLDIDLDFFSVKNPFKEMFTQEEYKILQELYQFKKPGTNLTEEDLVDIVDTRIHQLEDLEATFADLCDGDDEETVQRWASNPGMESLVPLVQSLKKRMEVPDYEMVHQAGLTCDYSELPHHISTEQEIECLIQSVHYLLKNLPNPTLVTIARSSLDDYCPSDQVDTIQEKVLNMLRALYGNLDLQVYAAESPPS
Chain of proteins of U3A human fibrosarcoma cells (4462 proteins detected) (Homo sapiens, UniProt Q8TED0) (Q8TED0 whole entry): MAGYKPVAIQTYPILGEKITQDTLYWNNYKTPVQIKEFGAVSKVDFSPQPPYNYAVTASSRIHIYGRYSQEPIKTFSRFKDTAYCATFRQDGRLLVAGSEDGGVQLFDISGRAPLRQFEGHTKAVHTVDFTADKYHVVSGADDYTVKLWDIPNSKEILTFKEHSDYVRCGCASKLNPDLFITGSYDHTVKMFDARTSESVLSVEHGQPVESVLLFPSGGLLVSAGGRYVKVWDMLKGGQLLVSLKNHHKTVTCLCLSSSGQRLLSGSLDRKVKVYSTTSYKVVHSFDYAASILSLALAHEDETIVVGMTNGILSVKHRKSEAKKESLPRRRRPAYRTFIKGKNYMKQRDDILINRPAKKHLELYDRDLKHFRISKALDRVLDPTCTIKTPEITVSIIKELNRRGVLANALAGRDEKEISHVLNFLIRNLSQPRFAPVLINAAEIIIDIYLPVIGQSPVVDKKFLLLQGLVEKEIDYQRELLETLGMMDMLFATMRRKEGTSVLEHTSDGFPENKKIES
Chain of proteins of U3A human fibrosarcoma cells (4462 proteins detected) (Homo sapiens, UniProt P17706) (P17706 whole entry): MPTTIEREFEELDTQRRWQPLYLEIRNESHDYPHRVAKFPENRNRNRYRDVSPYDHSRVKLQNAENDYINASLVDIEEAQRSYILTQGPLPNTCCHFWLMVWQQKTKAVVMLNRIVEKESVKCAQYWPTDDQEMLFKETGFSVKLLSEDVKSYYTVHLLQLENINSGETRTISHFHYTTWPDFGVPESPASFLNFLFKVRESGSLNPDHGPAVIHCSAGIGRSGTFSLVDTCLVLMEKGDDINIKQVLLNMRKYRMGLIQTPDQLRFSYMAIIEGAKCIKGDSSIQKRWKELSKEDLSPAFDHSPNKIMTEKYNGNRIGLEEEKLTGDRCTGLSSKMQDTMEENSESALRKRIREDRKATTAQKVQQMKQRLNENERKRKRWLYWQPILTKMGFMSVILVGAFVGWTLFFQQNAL
Chain of proteins of U3A human fibrosarcoma cells (4462 proteins detected) (Homo sapiens, UniProt Q9BW91) (Q9BW91 47-350): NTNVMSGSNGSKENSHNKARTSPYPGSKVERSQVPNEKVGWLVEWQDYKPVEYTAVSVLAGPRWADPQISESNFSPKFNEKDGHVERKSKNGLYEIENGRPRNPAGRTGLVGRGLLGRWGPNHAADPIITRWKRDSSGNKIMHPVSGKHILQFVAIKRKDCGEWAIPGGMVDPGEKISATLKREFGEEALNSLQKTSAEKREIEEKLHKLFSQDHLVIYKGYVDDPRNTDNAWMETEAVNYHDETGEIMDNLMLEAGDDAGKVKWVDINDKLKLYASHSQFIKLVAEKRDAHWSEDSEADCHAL
Chain of proteins of U3A human fibrosarcoma cells (4462 proteins detected) (Homo sapiens, UniProt Q9H7X7) (Q9H7X7 whole entry): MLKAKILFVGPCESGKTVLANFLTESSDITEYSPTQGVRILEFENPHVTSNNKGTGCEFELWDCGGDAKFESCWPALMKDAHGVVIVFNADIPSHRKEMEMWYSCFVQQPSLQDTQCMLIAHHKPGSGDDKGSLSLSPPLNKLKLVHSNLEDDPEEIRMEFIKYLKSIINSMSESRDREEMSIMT
Chain of proteins of U3A human fibrosarcoma cells (4462 proteins detected) (Homo sapiens, UniProt Q9C0E2) (Q9C0E2 whole entry): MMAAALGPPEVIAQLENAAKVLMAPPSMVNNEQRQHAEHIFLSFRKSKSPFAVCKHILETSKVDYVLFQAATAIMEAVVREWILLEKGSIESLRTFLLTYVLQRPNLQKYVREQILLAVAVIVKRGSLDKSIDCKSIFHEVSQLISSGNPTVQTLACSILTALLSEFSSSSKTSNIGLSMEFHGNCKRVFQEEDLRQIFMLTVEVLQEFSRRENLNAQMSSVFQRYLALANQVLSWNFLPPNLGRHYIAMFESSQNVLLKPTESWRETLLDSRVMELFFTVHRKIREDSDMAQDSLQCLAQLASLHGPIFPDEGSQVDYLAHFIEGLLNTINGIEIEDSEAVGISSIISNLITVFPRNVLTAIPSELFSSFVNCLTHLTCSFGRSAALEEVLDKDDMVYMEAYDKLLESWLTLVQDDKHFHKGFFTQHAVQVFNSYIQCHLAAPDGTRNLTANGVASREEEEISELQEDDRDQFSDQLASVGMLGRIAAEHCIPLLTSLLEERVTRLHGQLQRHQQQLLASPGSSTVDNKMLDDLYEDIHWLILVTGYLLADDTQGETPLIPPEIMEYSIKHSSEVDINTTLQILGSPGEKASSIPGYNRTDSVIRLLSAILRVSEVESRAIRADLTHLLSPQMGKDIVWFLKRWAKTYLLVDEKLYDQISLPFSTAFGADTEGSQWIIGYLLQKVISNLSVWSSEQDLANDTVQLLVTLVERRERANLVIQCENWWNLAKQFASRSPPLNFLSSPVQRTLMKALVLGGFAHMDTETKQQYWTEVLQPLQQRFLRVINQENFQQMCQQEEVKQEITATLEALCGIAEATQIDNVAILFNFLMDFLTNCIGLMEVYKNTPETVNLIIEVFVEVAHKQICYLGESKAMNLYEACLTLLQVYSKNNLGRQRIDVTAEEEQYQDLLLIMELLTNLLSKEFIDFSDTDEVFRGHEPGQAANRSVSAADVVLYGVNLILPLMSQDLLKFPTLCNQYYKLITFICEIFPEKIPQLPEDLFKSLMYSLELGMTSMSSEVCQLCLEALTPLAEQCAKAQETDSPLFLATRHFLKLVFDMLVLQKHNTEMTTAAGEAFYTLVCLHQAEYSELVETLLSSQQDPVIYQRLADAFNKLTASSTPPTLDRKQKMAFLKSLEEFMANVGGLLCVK
Chain of proteins of U3A human fibrosarcoma cells (4462 proteins detected) (Homo sapiens, UniProt Q9BUL5) (Q9BUL5 whole entry): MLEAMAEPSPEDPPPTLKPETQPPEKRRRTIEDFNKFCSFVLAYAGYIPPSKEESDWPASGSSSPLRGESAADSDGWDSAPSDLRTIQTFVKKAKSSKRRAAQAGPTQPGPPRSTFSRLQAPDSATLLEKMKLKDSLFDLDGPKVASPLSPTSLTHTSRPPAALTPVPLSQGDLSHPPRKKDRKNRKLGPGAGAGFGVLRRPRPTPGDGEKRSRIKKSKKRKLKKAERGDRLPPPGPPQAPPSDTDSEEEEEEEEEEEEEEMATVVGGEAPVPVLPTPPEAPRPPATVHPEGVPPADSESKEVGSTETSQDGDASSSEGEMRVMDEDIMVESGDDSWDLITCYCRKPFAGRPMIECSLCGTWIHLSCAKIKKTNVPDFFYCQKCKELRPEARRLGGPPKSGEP
Chain of proteins of U3A human fibrosarcoma cells (4462 proteins detected) (Homo sapiens, UniProt P26447) (P26447 whole entry): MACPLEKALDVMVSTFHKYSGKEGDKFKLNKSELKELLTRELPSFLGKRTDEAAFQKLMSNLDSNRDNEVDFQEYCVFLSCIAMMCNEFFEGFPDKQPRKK

CCc1nc(N)nc(N)c1-c1ccc(Cl)cc1 [pyrimethamine]
Log2 (PYR/DMSO) [1]: 0.18 | Log2 (PYR/DMSO) [2]: 0.21 | Log2 (PYR/DMSO) [3]: 0.16 | Log2 (PYR/DMSO) [4]: -0.04 | Log2 (PYR/DMSO) [5]: -0.04 | Log2 (PYR/DMSO), UBE2S [6]: 0.25 | Log2 (PYR/DMSO) [7]: 0.17 | Log2 (PYR/DMSO), IFT22 [8]: -0.16 | Log2 (PYR/DMSO) [9]: -0.04 | Log2 (PYR/DMSO) [10]: 0.16 | Log2 (PYR/DMSO) [11]: -0.04 | Log2 (PYR/DMSO) [12]: -0.04 | Log2 (PYR/DMSO) [13]: 0.15 | Log2 (PYR/DMSO) [14]: 0.22 | Log2 (PYR/DMSO) [15]: -0.04 | Log2 (PYR/DMSO) [16]: -0.04 | Log2 (PYR/DMSO), S100A4 [17]: -0.16 | Log2 (PYR/DMSO) [18]: 0.14 | Log2 (PYR/DMSO) [19]: 0.16 | Log2 (PYR/DMSO) ([20]; U3A cells): -0.03 | Log2 (PYR/DMSO), PPIA ([20]; U3A, 10 μM, 2 h): -0.14 | Log2 (PYR/DMSO) [21]: 0.13 | Log2 (PYR/DMSO) [22]: 0.18 | Log2 (PYR/DMSO) [23]: 0.16 | Log2 (PYR/DMSO) [24]: 0.17 | Log2 (PYR/DMSO), HNRNPC [25]: 0.27 | Log2 (PYR/DMSO) [26]: -0.04 | Log2 (PYR/DMSO) [27]: 0.15 | Log2 (PYR/DMSO) [28]: 0.21 | Log2 (PYR/DMSO) [29]: 0.14 | Log2 (PYR/DMSO) [30]: 0.20
